One series concerns the target T1, LKB1 (Homo sapiens, UniProt Q15831).
T1 construct: purchased Kinexus, Canada (screening service)
As to the kind of experiment: Cell-free kinase assay (Kinexus). It is filed as biochemical. How it is done:
(§1) To determine whether Activator-3 affects the activity of any other protein kinases, we screened it in cell-free assays against a panel of 100 protein kinases (Kinexus, Canada). […] Three kinases, DDR1 (−79%), SRC (−71%) and ALK5 (−61%) were inhibited by Activator-3 by more than 50% at 10 µM.
Table S2: Activity change observed in the LKB1 Kinase tested against Activator-3 at 200μM
Protein Kinase (CPM) (CPM) % Change
Table S3: Evaluating the goodness of the representative structure obtained from MD
simulations using PROCHECK server.
Ramchandran Map No. of resides Percentage
Most favored regions 889 85.8%
Additional allowed regions 128 12.4%
Generously allowed regions 13 1.3%
Disallowed regions 6 0.6%
Non-glycine and non-proline residues 1036 100.0%
Table S4: Heterotrimeric human AMPK crystal structures available in PDB.
PDBID Isoform Organism Inhibitor and/or activator Modifications References
Staurosporine, 108-SEP Lagendorf et al. 20161
5EZV α2β1γ1 Homo sapiens C2Z, C1V, Staurosporine 172-TPO […]

The target of a further series is T2, LRRK2 (Homo sapiens, UniProt Q5S007).
T2 construct: purchased Kinexus, Canada (screening service)
As to the kind of experiment: Cell-free kinase panel (Kinexus). It is filed as biochemical. As to conditions: 10 µM. As to the method:
as §1

The next series addresses T3, CAMKK2 (Homo sapiens, UniProt Q96RR4).
T3 construct: purchased Kinexus, Canada (screening service)
As to the kind of experiment: Cell-free kinase panel (Kinexus). It is filed as biochemical. As to the method: as §1

For the next series, the target named is T4, SRC (Homo sapiens, UniProt P12931).
T4 construct: purchased Kinexus, Canada (screening service)
T4 sequence (P12931 whole entry, species assumed): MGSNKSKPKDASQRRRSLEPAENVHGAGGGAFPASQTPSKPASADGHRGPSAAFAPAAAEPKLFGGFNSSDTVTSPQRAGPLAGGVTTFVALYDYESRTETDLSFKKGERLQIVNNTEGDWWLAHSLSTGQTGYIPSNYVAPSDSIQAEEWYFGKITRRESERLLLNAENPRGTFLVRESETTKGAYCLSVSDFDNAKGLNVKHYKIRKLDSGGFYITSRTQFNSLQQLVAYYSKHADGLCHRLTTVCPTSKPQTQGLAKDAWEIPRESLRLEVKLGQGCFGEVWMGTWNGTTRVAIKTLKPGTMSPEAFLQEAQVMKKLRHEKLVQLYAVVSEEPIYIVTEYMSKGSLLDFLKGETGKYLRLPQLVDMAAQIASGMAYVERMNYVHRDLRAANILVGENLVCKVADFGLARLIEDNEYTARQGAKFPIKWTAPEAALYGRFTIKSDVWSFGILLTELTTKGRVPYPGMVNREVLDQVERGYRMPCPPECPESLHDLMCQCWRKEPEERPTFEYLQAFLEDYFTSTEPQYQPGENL
As to the kind of experiment: Cell-free kinase panel (Kinexus). The conditions noted are these: 10 µM. The class given is biochemical. How it is done: as §1

For another series, the target named is T5, PRK1 (Homo sapiens, UniProt Q16512).
T5 construct: purchased Kinexus, Canada (screening service)
T5 sequence (Q16512 whole entry, species assumed): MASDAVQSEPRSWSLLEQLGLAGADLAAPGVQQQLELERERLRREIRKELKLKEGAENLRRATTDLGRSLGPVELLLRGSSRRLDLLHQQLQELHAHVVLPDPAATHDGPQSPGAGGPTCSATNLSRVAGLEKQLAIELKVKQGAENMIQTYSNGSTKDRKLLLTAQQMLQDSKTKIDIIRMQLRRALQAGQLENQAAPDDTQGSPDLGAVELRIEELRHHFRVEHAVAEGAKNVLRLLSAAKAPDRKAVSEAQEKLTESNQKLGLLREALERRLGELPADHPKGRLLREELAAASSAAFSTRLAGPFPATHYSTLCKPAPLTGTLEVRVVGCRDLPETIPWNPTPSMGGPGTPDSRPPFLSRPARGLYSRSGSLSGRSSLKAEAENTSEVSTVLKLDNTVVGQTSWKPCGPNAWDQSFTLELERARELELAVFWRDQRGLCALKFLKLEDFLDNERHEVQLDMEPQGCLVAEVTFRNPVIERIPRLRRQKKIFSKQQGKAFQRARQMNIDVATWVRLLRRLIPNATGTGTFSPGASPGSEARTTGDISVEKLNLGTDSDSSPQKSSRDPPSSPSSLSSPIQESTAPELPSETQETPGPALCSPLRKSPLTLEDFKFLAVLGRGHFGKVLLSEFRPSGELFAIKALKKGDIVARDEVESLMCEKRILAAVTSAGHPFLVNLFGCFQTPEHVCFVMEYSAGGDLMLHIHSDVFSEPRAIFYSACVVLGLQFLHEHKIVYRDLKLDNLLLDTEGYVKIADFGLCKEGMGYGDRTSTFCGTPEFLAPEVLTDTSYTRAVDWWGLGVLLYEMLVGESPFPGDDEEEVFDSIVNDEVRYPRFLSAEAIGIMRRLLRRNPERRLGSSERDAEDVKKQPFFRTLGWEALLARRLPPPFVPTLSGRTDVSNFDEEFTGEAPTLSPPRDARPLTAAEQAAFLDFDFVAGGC
As to the kind of experiment: Cell-free kinase panel (Kinexus). It is filed as biochemical. As to conditions: 10 µM. How it is done: as §1

The target in a further series is T6, TAK1 (Homo sapiens, UniProt O43318).
T6 construct: purchased Kinexus, Canada (screening service)
As to the kind of experiment: Cell-free kinase panel (Kinexus). The class given is biochemical. As to conditions: 10 µM. How it is done: as §1

The target in the next series is T7, ROR2 (Homo sapiens, UniProt Q01974).
T7 construct: purchased Kinexus, Canada (screening service)
As to the kind of experiment: Cell-free kinase panel (Kinexus). It is filed as biochemical. The conditions noted are these: 10 µM. As to the method: as §1

A further series has as its target T8, ALK5 (Homo sapiens, UniProt P36897).
T8 construct: purchased Kinexus, Canada (screening service)
As to the kind of experiment: Cell-free kinase panel (Kinexus). As to conditions: 10 µM. The class given is biochemical. As to the method:
as §1

Another series has as its target T9, PAK1 (Homo sapiens, UniProt Q13153).
T9 construct: purchased Kinexus, Canada (screening service)
As to the kind of experiment: Cell-free kinase panel (Kinexus). The class given is biochemical. The conditions noted are these: 10 µM. As to the method: as §1

For series [1], the system named is panel of 100 protein kinases. As to the kind of experiment: Cell-free kinase panel (Kinexus), whole panel. It is filed as biochemical. As to conditions: 10 µM. How it is done:
as §1

Another series concerns AMPK. As to the kind of experiment: Cell based ELISA (pAMPK/pACC) in primary rat hepatocytes. As to the method:
Primary rat hepatocytes were isolated by collagenase (type4, Invitrogen: Cat# 17104-019) digestion as described previously. Digested cells were suspended in DMEM supplemented with 10% FBS. Cells were seeded into 96-well plate (20,000 cells per well) pre-coated with collagen (2 mg/ml). As the cells were metabolically active, medium was changed after cells have attached and allowed to incubate overnight before performing cell based assay.
Approximately 40,000 cells per well were seeded into a 96 well plate (Biofil, cat# TCP011096) and incubated overnight at 37 °C and 5% CO2. After the seeded cells reached 80% confluence, cells were treated with Activator-3 with different working concentrations and 500 μM AICAR (Caymen chemicals, cat# 10010241-10) and incubated for 30 min to 2 h (depending upon the primary antibody used) at 37 °C and 5% CO2. Medium was aspirated and fixed with 4% of formaldehyde solution (diluted in 1X PBS) incubated for 1 h at 4 °C on shaker. Cells were washed with tween 20 (diluted in 1X PBS) on shaker for 5 minutes at room temperature (3 times). […] To quantify the bound primary antibody, cells were probed with a HRP conjugated secondary anti-rabbit antibody (1:2000 dilution, Bio-Rad; Cat# 170-6515) diluted in 1X PBST and incubated 2 h at RT on rocker. […] This reaction is stopped by adding 2 N H2SO4 and plate was immediately read at 450 nm using UV–Vis Spectrophotometer.

Series [2] deals with human recombinant AMPK α2β1γ1 (Homo sapiens, UniProt P54619). As to the kind of experiment: Phosphatase protection assay (PP2C). On the set-up: host or cells: baculovirus expression. As to conditions: 10–100 nM. It is filed as biochemical. How it is done:
The reaction was stopped by adding SDS-loading dye immediately to the reaction mixtures followed by boiling the samples at 95 °C for 10′. These samples were run on a 10% SDS-PAGE and probed for AMPK and pAMPK (1:1000; Cell Signaling Technologies).

The target in series [3] is T10, recombinant human AMPK α1β1γ1 (Homo sapiens, UniProt P54619).
T10 construct: purchased SignalChem P47-10H-05/P48-10H-05 (for all four isozymes together); host or cells: baculovirus expression
T10 sequence (P54619 whole entry): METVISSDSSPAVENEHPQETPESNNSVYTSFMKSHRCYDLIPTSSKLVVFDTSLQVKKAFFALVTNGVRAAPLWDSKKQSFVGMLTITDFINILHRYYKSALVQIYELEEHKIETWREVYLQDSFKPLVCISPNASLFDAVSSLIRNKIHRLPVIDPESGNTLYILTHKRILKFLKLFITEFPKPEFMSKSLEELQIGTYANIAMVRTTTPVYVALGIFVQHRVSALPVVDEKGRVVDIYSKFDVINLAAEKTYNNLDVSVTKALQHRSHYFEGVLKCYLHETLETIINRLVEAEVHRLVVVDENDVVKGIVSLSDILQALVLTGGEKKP
T10 sequence (Q13131 whole entry partner): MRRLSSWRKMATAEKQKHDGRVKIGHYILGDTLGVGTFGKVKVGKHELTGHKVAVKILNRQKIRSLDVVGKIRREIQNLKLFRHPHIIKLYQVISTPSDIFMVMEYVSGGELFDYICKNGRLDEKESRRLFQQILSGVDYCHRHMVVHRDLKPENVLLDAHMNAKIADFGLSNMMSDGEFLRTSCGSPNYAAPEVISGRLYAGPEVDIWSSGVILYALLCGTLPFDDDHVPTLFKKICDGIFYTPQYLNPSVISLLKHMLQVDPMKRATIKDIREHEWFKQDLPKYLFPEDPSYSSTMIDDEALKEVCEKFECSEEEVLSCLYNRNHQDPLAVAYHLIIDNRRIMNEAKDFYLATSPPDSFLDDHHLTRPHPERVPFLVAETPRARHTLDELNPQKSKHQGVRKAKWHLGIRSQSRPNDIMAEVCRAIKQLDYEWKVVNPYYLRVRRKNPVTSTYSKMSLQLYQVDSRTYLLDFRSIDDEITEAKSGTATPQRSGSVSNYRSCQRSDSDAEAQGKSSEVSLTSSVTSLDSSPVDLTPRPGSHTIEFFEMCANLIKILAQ
T10 sequence (Q9Y478 whole entry partner): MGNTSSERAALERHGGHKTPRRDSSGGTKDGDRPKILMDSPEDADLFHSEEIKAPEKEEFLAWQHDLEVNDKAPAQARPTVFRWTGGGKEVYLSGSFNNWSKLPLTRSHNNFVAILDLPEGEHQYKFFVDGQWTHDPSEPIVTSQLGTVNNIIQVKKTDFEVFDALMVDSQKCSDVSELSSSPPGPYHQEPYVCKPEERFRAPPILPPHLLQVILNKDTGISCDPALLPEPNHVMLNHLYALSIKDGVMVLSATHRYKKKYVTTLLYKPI
As to the kind of experiment: In vitro AMP kinase assay (pACC ELISA), α1β1γ1. The class given is biochemical. An excerpt: Having observed the effect of Activator-3 on the activation of AMPK in cell based assays, we next examined whether Activator-3 could activate AMPK directly or not. […] The activity of recombinant human AMPK (α1β1γ1, α2β1γ1, α2β2γ2 and α2β2γ3) in the presence of vehicle was considered as 100%. The EC50 of Activator-3 for the activation of α1β1γ1, α2β1γ1 and α2β2γ2 isozymes were similar. However, the activity of Activator-3 against α2β2γ3 was marginally higher (Fig. 1C).
A high binding Enzyme Immuno Assay (EIA) 96-well plate (Sigma: Cat# CLS3590) was coated with Acetyl CoA Carboxylase 2 (ACC: 175–271 amino acids) peptide, a direct substrate for AMPK, 100 ng per well (1:1000 ratio, Cat# 12–491, Upstate biotechnology) and incubated overnight at 25 °C. Reaction mixture was incubated at 30 °C for 2 h and reaction was stopped by washing the plate with 0.05% Tween 20 followed by incubation with pACC primary antibody and rabbit secondary antibody as described in cell based ELISA section. Assay buffer is composed of 10 mM DTT, 100 mM magnesium acetate, 50 μM ATP and 10 mM HEPES.
On the technique in general: An ELISA detects its analyte on a solid surface through an enzyme-linked reagent.

Series [4] can be described thus: Human plasma protein binding. It is filed as in vitro ADME. The conditions noted are these: data not shown.

These results are taken from PMC6018554, “2-[2-(4-(trifluoromethyl)phenylamino)thiazol-4-yl]acetic acid (Activator-3) is a potent activator of AMPK” (Scientific Reports, 2018).

pEC50: −log10 of the molar value.

T1 sequence (Q15831 whole entry, species assumed): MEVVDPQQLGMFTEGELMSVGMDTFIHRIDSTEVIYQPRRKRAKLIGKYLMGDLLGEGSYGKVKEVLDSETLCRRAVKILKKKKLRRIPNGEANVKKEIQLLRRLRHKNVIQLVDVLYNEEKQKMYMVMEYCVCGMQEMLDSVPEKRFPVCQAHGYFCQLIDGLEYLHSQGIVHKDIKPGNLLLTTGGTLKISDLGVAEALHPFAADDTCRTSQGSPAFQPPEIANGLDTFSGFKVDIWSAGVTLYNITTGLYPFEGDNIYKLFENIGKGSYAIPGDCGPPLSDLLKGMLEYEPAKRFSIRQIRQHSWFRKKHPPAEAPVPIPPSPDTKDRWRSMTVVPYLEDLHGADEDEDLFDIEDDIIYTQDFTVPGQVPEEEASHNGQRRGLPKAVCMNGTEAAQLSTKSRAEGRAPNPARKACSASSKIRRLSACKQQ
T1 sequence (Q7RTN6 whole entry partner, species assumed): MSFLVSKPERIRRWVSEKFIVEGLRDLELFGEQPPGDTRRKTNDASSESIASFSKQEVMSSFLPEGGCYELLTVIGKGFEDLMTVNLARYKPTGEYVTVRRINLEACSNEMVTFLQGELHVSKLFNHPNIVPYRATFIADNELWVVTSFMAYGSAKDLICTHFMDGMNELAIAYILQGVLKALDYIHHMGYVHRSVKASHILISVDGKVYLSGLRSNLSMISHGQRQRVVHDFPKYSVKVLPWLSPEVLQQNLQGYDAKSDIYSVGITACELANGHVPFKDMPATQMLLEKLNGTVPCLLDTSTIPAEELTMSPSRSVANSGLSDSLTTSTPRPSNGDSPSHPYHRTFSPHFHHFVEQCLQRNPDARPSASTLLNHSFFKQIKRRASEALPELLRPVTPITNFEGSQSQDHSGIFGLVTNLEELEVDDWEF
T1 sequence (Q9Y376 whole entry partner, species assumed): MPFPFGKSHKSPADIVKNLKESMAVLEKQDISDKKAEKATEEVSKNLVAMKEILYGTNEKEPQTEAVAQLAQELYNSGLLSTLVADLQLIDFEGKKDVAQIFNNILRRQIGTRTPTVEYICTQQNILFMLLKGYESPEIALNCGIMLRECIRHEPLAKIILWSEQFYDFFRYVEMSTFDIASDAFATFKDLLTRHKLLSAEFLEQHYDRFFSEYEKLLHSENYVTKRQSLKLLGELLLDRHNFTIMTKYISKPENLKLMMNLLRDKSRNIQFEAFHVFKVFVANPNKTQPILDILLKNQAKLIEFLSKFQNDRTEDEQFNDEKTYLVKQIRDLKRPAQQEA
T9 sequence (Q13153 whole entry): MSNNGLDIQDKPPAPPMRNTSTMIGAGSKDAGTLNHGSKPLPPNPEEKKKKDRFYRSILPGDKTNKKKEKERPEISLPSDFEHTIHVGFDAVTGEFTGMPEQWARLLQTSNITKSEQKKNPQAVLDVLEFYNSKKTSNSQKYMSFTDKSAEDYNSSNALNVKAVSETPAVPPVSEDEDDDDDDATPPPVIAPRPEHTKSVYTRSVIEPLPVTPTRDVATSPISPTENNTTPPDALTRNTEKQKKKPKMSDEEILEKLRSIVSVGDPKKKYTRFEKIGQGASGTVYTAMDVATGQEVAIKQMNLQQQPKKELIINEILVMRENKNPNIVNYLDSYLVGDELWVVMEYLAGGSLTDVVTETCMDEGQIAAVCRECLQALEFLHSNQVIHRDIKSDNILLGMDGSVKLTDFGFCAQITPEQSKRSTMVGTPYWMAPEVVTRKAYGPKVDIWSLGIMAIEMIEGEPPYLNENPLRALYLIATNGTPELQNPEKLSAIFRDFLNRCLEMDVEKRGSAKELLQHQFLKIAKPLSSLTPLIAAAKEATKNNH
T3 sequence (Q96RR4 whole entry, species assumed): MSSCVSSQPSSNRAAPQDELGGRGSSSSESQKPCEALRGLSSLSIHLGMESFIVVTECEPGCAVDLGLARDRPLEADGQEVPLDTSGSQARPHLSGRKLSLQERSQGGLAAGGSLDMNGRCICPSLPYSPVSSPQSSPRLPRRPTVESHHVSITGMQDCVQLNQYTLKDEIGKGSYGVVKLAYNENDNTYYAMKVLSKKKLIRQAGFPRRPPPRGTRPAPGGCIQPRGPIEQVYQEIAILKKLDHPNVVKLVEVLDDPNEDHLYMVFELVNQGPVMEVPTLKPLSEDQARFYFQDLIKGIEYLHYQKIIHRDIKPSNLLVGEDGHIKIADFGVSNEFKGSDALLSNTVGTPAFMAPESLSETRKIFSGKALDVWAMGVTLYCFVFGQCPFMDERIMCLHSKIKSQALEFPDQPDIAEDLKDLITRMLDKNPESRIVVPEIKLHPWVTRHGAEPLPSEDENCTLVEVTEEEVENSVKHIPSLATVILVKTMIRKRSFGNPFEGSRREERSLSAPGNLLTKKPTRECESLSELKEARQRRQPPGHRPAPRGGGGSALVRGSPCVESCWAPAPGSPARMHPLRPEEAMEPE

Regarding `O=C(O)Cc1csc(Nc2ccc(C(F)(F)F)cc2)n1` [Activator-3, 2-[2-(4-(trifluoromethyl)phenylamino)thiazol-4-yl]acetic acid], the “effect on kinase activity” value on LKB1 (10 µM) and on TAK1 was “not affected” throughout. For the same compound, at LKB1 (200μM, Control 10984 CPM, Test 11638 CPM), the “% Change” value is recorded as 5%. Further, the activity change on LRRK2 was −34%; on SRC, −71%; on PRK1, −36%; on ROR2, −35%; at ALK5, −61%; at PAK1, −42%. The inhibition (usually the share of the control response that was lost under treatment) at 10 µM against CAMKK2 is 36%. Further, the “effect on kinase activity, majority of panel” value in series [1] was “not affected”. The pEC50 (usually the EC50 on a negative log10 scale, so that one unit is a factor of ten) is about 7.55 in the series on AMPK and about 7.42 in [3] (read-out: EC50 allosteric activation hα1β1γ1). The “protection against PP2C mediated dephosphorylation of Thr172 AMPK” value in series [2] was “provided protection”. The “cooperativity of AMPK activation at high ATP” value in series [3] (ATP 2 mM vs 20 µM, Activator-3 0–1 µM) is given as “does not exhibit co-operative binding”. For the same compound, the “reduction of AMPK activity stimulated by 100 µM AMP” value in series [3] (Activator-3 1 nM to 10 μM with 100 µM AMP) is on record as ~ 50%. For the same compound, the fraction unbound (as a rule, the share of the substance not bound to proteins or other matrix) in series [4] is about 0.2.
